Data as given in paper PMC11925246 (Journal of Bacteriology, 2025).
“And” between values parts separate entries of the source, which are not always exact repeats. Equal values may be shown once. Read-outs that look alike come from different tables or passages of the source.

Assays:
[1] = biological target: periplasmic domain of Rsc1598 (Ralstonia pseudosolanacearum, UniProt Q8XZ08); test: biochemical; type: binding, R. pseudosolanacearum OE1-1
hrpB expression [2] = type: cell-based, R. pseudosolanacearum; details: hrpB-lacZ resting cells, 25°C; for Induction of hrpB expression by organic acids: organic acid 0.1 mM, 20 h (Fig. 5); for Induction of hrpB expression by sugars: sugar 0.01%, 20 h (Fig. 6)
hrpB expression [3] = type: cell-based, R. pseudosolanacearum; details: malic acid 0.5 mM or sucrose 0.01%, quarter-strength M63 with 0.25% glucose, 28 °C, 5 h (Fig. S4)

Sequence of periplasmic domain of Rsc1598 (Q8XZ08 99-319 limits assumed): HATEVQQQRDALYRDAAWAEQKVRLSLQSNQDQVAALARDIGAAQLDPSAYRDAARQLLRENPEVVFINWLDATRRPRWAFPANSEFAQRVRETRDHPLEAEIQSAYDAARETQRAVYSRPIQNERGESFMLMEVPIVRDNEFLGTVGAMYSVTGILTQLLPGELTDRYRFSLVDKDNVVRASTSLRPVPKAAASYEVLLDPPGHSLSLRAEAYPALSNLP

`O=C(O)CC(O)(CC(=O)O)C(=O)O` [Citric acid, citric acid] was tested, and the Kd ([1]; Kd, Average of titrations, 25°C, pH 7.6) was 155 ± 80.7 µM, the Kd ([1]; Kd, ITC single titration, ligand 4 mM, 25°C, 50 mM sodium phosphate buffer pH 7.6, protein 40 µM) was 137 µM and the Kd ([1]; Kd, ITC single titration, ligand 5 mM, 25°C, 50 mM sodium phosphate buffer pH 7.6, protein 40 µM) was 84.5 µM. It also gave a Kd ([1]; Kd, ITC single titration, ligand 6 mM, 25°C, 50 mM sodium phosphate buffer pH 7.6, protein 40 µM) of 243 µM.
For `O=CO` [Formic acid, formic acid], the Kd ([1]; ITC single titration, ligand 5 mM, 25°C, 50 mM sodium phosphate buffer pH 7.6, protein 40 µM, read-out: Kd) was 71.5 µM and the Kd ([1]; ITC single titration, ligand 6 mM, 25°C, 50 mM sodium phosphate buffer pH 7.6, protein 40 µM, read-out: Kd) was 231 µM.
With `O=C(O)/C=C/C(=O)O` [Fumaric acid, fumaric acid] the Kd ([1]; Kd) was 47 µM and 56.3 µM and the Kd ([1]; pH 7.6) was “smaller than that of malic acid”.
In the case of `O=C(O)[C@@H]1CCC(O)=N1` [L-pyroglutamic acid], the Kd ([1]; Kd) is reported as 41 µM and 43.2 µM and 194 µM and the “Induction of hrpB expression by organic acids” value (from here on “Induction … by organic acids”) (hrpB expression [2]) is reported as “induced high levels of hrpB expression”.
With `O=C(O)CC(O)C(=O)O` (centres unmarked) [Malic acid, malic acid] the Kd ([1]; Kd) was 68.4 µM and 64.3 µM and 89 µM and 65 µM, the “Induction … by organic acids” value (hrpB expression [2]) was “induced high levels of hrpB expression” and the “Induction of hrpB-lacZ expression in growing cells” value (hrpB expression [3]) was “induced hrpB expression”.
For `O=C(O)C(=O)O` [Oxalic acid, oxalic acid], the Kd ([1]; Kd) was 229 µM and 151 µM.
`O=C(O)CCC(=O)O` [Succinic acid, succinic acid] was tested, and the Kd ([1]; Kd) was 29.5 µM and 190 µM and the “Induction … by organic acids” value (hrpB expression [2]) was “induced high levels of hrpB expression”.
In the case of `O=C(CO)[C@@H](O)[C@H](O)[C@H](O)CO` [fructose], the “Induction of hrpB expression by sugars” value (hrpB expression [2]) is reported as “induced hrpB expression”.
`OC[C@H]1OC(O)[C@H](O)[C@@H](O)[C@@H]1O` (some centres unmarked) [glucose] was tested, and the “Induction of hrpB expression by sugars” value (hrpB expression [2]) was “induced hrpB expression”.
For `OC[C@H]1O[C@@](CO)(O[C@H]2O[C@H](CO)[C@@H](O)[C@H](O)[C@H]2O)[C@@H](O)[C@@H]1O` [sucrose], the “Induction of hrpB expression by sugars” value (hrpB expression [2]) was “the most effective sugar” and the “Induction of hrpB-lacZ expression in growing cells” value (hrpB expression [3]) was “minimal induction”.
